In US12428394B2, “2,4-disubstituted pyrimidine derivative, preparation method therefor and use thereof” (CHENGDU ZENITAR BIOMEDICAL TECHNOLOGY CO., LTD., priority 2019, dated 2025):
Read-outs that look alike come from different tables or passages of the source.

Assays:
[1] = tested on: MV4-11 cells (FLT3-ITD+/+); experiment: Inhibition of cell proliferation by MTT experiment, MV4-11; assay type: cell-based, human; details: MTT, 72 h, read-out: IC50 value on cell proliferation inhibition, MV4-11 FLT3-ITD+/+
Summary of the method: (§1)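 MTT assay in MV4-11, MOLM-13 (FLT3-ITD) and SET-2 (JAK2 V617F) cells at 10,000–15,000 cells/well in IMDM with 10% FBS. Cells are exposed to compound for 72 h at 37 °C, then to MTT for 1–3 h. IC50 is fitted from inhibition rates across concentrations.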

JAK2 = target: T1, JAK2 (Homo sapiens, UniProt O60674); experiment: In vitro kinase activity experiment, JAK2; assay type: biochemical; details: inhibition rate of enzyme at 500 nM; measured by Eurofins
T1 construct: purchased Eurofins
T1 sequence (O60674 whole entry): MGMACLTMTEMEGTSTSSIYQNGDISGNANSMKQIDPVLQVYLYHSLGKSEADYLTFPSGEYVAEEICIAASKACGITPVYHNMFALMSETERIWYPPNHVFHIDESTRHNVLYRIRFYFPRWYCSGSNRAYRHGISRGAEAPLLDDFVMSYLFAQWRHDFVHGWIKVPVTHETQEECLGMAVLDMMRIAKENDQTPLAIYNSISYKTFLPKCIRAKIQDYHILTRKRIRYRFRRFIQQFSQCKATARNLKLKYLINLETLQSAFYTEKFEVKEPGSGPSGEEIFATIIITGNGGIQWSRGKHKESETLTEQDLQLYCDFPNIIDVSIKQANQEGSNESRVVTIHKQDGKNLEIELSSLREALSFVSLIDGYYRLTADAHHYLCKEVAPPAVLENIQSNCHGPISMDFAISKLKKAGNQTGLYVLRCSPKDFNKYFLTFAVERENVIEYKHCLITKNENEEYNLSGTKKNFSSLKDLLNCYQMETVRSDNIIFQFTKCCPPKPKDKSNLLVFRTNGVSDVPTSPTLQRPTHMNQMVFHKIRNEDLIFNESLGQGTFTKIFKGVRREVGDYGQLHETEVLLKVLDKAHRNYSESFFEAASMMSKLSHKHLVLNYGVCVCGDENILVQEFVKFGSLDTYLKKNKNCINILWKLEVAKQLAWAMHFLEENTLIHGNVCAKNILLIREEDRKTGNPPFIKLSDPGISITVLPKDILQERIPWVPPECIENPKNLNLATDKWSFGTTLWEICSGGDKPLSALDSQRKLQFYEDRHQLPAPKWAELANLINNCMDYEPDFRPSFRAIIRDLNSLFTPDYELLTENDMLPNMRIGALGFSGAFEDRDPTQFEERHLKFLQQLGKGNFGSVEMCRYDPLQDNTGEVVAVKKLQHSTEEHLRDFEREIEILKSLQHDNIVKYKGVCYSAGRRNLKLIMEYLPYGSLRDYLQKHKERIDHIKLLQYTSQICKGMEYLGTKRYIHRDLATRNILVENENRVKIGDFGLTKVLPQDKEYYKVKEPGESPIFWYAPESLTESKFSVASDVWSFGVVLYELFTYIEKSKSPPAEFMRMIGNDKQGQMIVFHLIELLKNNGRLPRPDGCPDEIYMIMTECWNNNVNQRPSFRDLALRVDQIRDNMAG
Summary of the method: (§2)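 Radiometric filter-binding assay: kinase, its substrate and compound in 8 mM MOPS pH 7.0, 0.2 mM EDTA, 10 mM MnCl2, with 10 mM magnesium acetate and γ33P-ATP; MgATP started the reaction, 40 min at room temperature. Stopped with 3% phosphate, spotted on Filtermat A, washed, scintillation counted.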

SET-2 cells (JAK2 V617F) = experiment: Inhibition of cell proliferation by MTT experiment, SET-2; assay type: cell-based; details: MTT, 72 h, read-out: IC50 value on cell proliferation inhibition, SET-2 (V617F)
Summary of the method: as §1

FLT3 = target: T2, FLT3 (Homo sapiens, UniProt P36888); experiment: In vitro kinase activity experiment, FLT3; assay type: biochemical; details: inhibition rate of enzyme at 500 nM, measured by Eurofins; for inhibition at 0.5 µM: 40 min, read-out: Kinase activity @ 500 nM (%) FLT3
T2 construct: purchased Eurofins
T2 sequence (P36888 27-993): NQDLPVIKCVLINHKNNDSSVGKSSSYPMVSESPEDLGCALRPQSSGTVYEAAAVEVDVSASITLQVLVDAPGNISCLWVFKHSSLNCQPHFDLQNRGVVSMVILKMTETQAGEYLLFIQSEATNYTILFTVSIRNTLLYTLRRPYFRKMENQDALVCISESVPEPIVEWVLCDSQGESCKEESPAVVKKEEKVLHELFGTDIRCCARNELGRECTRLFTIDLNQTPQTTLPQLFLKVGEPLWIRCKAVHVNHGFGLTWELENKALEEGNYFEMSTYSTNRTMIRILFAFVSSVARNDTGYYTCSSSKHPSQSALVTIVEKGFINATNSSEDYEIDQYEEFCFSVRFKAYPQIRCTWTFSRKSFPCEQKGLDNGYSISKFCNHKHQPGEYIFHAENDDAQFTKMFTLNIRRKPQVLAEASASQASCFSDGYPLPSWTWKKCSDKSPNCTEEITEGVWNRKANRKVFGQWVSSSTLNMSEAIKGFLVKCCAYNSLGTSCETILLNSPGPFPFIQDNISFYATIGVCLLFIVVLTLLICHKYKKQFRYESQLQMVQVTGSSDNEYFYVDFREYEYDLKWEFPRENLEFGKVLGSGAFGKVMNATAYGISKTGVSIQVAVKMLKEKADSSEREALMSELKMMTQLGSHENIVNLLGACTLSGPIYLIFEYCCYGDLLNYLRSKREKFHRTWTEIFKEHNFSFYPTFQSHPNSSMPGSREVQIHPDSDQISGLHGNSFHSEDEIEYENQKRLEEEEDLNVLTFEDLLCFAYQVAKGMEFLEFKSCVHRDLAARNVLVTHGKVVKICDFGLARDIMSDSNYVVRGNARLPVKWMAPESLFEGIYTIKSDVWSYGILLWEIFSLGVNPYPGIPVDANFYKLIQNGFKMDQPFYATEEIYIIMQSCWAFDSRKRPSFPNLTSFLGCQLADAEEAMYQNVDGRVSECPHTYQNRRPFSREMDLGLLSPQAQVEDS
Summary of the method: as §2

[2] = tested on: MOLM-13 cells (FLT3-ITD-/+); experiment: Inhibition of cell proliferation by MTT experiment, MOLM-13; assay type: cell-based, human; details: MTT, 72 h, read-out: IC50 value on cell proliferation inhibition, MOLM-13 FLT3-ITD-/+
Summary of the method: as §1

SMILES | IC50 ([1]; Homo sapiens, MV4-11) | Kinase activity @ 500 nM (%) JAK2 (JAK2) | inhibition at 0.5 µM (FLT3) | IC50 ([2]; Homo sapiens, MOLM-13) | IC50 (SET-2 cells (JAK2 V617F); Homo sapiens, SET-2) | IC50 [1] | IC50 (SET-2 cells (JAK2 V617F)) | Kinase activity @ 500 nM (%) FLT3 (FLT3) | IC50 [2]
CCCCN(C)C1CCN(c2ccc(Nc3ncc(C)c(-c4cnn(C(C)C)c4)n3)cc2F)CC1 [CLJ-50, 5-methyl-N-(3-fluoro-4-(4-N-butyl-4-N-methylaminopiperidine-1-yl)phenyl)-4-(1-isopropyl-1H-pyrazole-4-yl) pyrimidine-2-amine] | 0.1 to 1 µM | 89% | 90% | > 1 µM | > 1 µM |  |  |  | 
CCCCCCN(C)C1CCN(c2ccc(Nc3ncc(C)c(-c4cnn(C(C)C)c4)n3)cc2F)CC1 [CLJ-51, 5-methyl-N-(3-fluoro-4-(4-N-hexyl-4-N-methylaminopiperidine-1-yl)phenyl)-4-(1-isopropyl-1H-pyrazole-4-yl) pyrimidine-2-amine] | 0.1 to 1 µM | 95% | 93% | 0.001 to 0.01 µM | 0.1 to 1 µM |  |  |  | 
Cc1cnc(Nc2ccc(N3CCC(N(C)CCN4CCOCC4)CC3)c(F)c2)nc1-c1cnn(C(C)C)c1 [CLJ-54, N-(3-fluoro-4-(4-(methyl (2-morpholinoethyl)amino)piperidine-1-yl)phenyl)-4-(1-isopropyl-1H-pyrazole-4-yl)-5-methylpyrimidine-2-amine] | > 1 µM | 17% | 23% | > 1 µM | > 1 µM |  |  |  | 
Cc1cnc(Nc2ccc(N3CCC(N(C)CCN4CCCCC4)CC3)c(F)c2)nc1-c1cnn(C(C)C)c1 [CLJ-55, N-(3-fluoro-4-(4-(methyl (1-piperidylethyl)amino)piperidine-1-yl)phenyl)-4-(1-isopropyl-1H-pyrazole-4-yl)-5-methylpyrimidine-2-amine] | > 1 µM | 25% | 20% | > 1 µM | > 1 µM |  |  |  | 
Cc1cnc(Nc2ccc(N3CCC[C@@H](N(C)C(=O)CCC#N)C3)c(F)c2)nc1-c1cnn(C(C)C)c1 [CLJ-65, (R)-3-cyano-N-(1-(2-fluoro-4-((4-(1-isopropyl-1H-pyrazole-4-yl)-5-methylpyrimidine-2-yl)amino)phenyl)piperidine-3-yl)-N-methylpropionamide] | 0.01 to 0.1 µM | 90% | 89% | 0.01 to 0.1 µM | 0.1 to 1 µM |  |  |  | 
Cc1cnc(Nc2ccc(N3CCC4(CC3)CNC4)c(F)c2)nc1-c1cnn(C(C)C)c1 [CLJ-66, N-(3-fluoro-4-(2,7-diazaspiro[3.5]nonane-7-yl)phenyl)-4-(1-isopropyl-1H-pyrazole-4-yl)-5-methylpyrimidine-2-amine] | 0.01 to 0.1 µM | 93% | 94% | 0.1 to 1 µM | 0.1 to 1 µM |  |  |  | 
Cc1cnc(Nc2ccc(N3CCC4(CC3)CN(CCO)C4)c(F)c2)nc1-c1cnn(C(C)C)c1 [CLJ-67, N-(3-fluoro-4-(2,7-diazaspiro[3.5]nonane-2-hydroxyethyl-7-yl)phenyl)-4-(1-isopropyl-1H-pyrazole-4-yl)-5-methylpyrimidine-2-amine] |  | 96% |  |  |  | 0.01 to 0.1 µM | 0.1 to 1 µM | 98% | 0.1 to 1 µM
CCCC(O)CN1CC2(CCN(c3ccc(Nc4ncc(C)c(-c5cnn(C(C)C)c5)n4)cc3F)CC2)C1 (centres unmarked) [CLJ-70, N-(3-fluoro-4-(2,7-diazaspiro [3.5]nonane-2-hydroxypentyl-7-yl)phenyl)-4-(1-isopropyl-1H-pyrazol-4-yl)-5-methylpyrimidine-2-amine] |  | 90% |  |  |  | 0.01 to 0.1 µM | 0.1 to 1 µM | 91% | 0.01 to 0.1 µM

Continued, in another order:

IC50 ([1]; Homo sapiens, MV4-11) | Kinase activity @ 500 nM (%) JAK2 (JAK2) | inhibition at 0.5 µM (FLT3) | IC50 ([2]; Homo sapiens, MOLM-13) | SMILES | IC50 (SET-2 cells (JAK2 V617F); Homo sapiens, SET-2) | IC50 [1] | IC50 (SET-2 cells (JAK2 V617F)) | Kinase activity @ 500 nM (%) FLT3 (FLT3) | IC50 [2]
0.001 to 0.01 µM | 100% | 98% | 0.01 to 0.1 µM | Cc1cnc(Nc2ccc(N3CCC(N(C)CC4CCCO4)CC3)c(F)c2)nc1-c1cnn(C(C)C)c1 (centres unmarked) [CLJ-53, N-(3-fluoro-4-(4-(methyl((tetrahydrofuran-2-yl)methyl)amino)piperidine-1-yl)phenyl)-4-(1-isopropyl-1H-pyrazole-4-yl)-5-methylpyrimidine-2-amine] | 0.1 to 1 µM |  |  |  | 
0.01 to 0.1 µM | 99% | 96% | 0.01 to 0.1 µM | Cc1cnc(Nc2ccc(N3CCC(N(C)CCN4CCN(C)CC4)CC3)c(F)c2)nc1-c1cnn(C(C)C)c1 [CLJ-56, N-(3-fluoro-4-(4-(methyl (4-methyl-1-piperazine ethyl)amino)piperidine-1-yl)phenyl)-4-(1-isopropyl-1H-pyrazole-4-yl)-5-methylpyrimidine-2-amine] | 0.1 to 1 µM |  |  |  | 
0.001 to 0.01 µM | 97% | 96% | 0.01 to 0.1 µM | CCCN1CCN(CCN(C)C2CCN(c3ccc(Nc4ncc(C)c(-c5cnn(C(C)C)c5)n4)cc3F)CC2)CC1 [CLJ-57, N-(3-fluoro-4-(4-(methyl (4-propyl-1-piperazine ethyl)amino)piperidine-1-yl)phenyl)-4-(1-isopropyl-1H-pyrazole-4-yl)-5-methylpyrimidine-2-amine] | 0.1 to 1 µM |  |  |  | 
0.001 to 0.01 µM | 95% | 96% | 0.01 to 0.1 µM | Cc1cnc(Nc2ccc(N3CCC(N(C)CCN4CCN(C(C)C)CC4)CC3)c(F)c2)nc1-c1cnn(C(C)C)c1 [CLJ-58, N-(3-fluoro-4-(4-(methyl (4-isopropyl-1-piperazine ethyl)amino)piperidine-1-yl)phenyl)-4-(1-isopropyl-1H-pyrazole-4-yl)-5-methylpyrimidine-2-amine] | 0.1 to 1 µM |  |  |  | 
0.001 to 0.01 µM | 98% | 97% | 0.1 to 1 µM | CCN(CCN1CCOCC1)C1CCN(c2ccc(Nc3ncc(C)c(-c4cnn(C(C)C)c4)n3)cc2F)CC1 [CLJ-59, N-(3-fluoro-4-(4-(ethyl(morpholinoethyl)amino)piperidine-1-yl)phenyl)-4-(1-isopropyl-1H-pyrazole-4-yl)-5-methylpyrimidine-2-amine] | 0.1 to 1 µM |  |  |  | 
0.001 to 0.01 µM | 100% | 97% | 0.01 to 0.1 µM | CCCN(CCN1CCOCC1)C1CCN(c2ccc(Nc3ncc(C)c(-c4cnn(C(C)C)c4)n3)cc2F)CC1 [CLJ-60, N-(3-fluoro-4-(4-(propyl(morpholinoethyl)amino)piperidine-1-yl)phenyl)-4-(1-isopropyl-1H-pyrazole-4-yl)-5-methylpyrimidine-2-amine] | 0.1 to 1 µM |  |  |  | 
0.001 to 0.01 µM | 99% | 98% | 0.01 to 0.1 µM | Cc1cnc(Nc2ccc(N3CCC(CN(C)CCN4CCOCC4)CC3)c(F)c2)nc1-c1cnn(C(C)C)c1 [CLJ-61, N-(3-fluoro-4-(4-(methyl(morpholinoethyl)aminomethyl)piperidine-1-yl)phenyl)-4-(1-isopropyl-1H-pyrazole-4-yl)-5-methylpyrimidine-2-amine] | 0.1 to 1 µM |  |  |  | 
0.001 to 0.01 µM | 91% | 93% | 0.01 to 0.1 µM | CCN1CC2(CCN(c3ccc(Nc4ncc(C)c(-c5cnn(C(C)C)c5)n4)cc3F)CC2)C1 [CLJ-71, N-(3-fluoro-4-(2,7-diazaspiro [3.5]nonane-2-ethyl-7-yl)phenyl)-4-(1-isopropyl-1H-pyrazole-4-yl)-5-methylpyrimidine-2-amine] | 0.1 to 1 µM |  |  |  | 
